Results: PMC12846815, “Structural basis for iterative methylation by a cobalamin-dependent radical S-adenosylmethionine enzyme in cystobactamids biosynthesis” (Proceedings of the National Academy of Sciences of the …, 2026)

Columns and labels:
ccCysS [1] = molecular target: T1, ccCysS (Corallococcus sp. CA054B, UniProt A0A3A8HCN5); assay: X-ray crystal structure, […] Å; assay type: binding; conditions: active site, one conformer; with Met, 5′dA, Cbl and [Fe4S4]; anoxic, pH 6.0
T1 construct: gene D7V80_23740; codon-optimised gene in pSUMO, N-terminal SUMO tag cleaved with Ulp1; E. coli BL21(DE3) with pDB1282 and pBAD42-BtuCEDFB; monomer; TLS groups span residues 5 to 704
T1 sequence (A0A3A8HCN5 1-645): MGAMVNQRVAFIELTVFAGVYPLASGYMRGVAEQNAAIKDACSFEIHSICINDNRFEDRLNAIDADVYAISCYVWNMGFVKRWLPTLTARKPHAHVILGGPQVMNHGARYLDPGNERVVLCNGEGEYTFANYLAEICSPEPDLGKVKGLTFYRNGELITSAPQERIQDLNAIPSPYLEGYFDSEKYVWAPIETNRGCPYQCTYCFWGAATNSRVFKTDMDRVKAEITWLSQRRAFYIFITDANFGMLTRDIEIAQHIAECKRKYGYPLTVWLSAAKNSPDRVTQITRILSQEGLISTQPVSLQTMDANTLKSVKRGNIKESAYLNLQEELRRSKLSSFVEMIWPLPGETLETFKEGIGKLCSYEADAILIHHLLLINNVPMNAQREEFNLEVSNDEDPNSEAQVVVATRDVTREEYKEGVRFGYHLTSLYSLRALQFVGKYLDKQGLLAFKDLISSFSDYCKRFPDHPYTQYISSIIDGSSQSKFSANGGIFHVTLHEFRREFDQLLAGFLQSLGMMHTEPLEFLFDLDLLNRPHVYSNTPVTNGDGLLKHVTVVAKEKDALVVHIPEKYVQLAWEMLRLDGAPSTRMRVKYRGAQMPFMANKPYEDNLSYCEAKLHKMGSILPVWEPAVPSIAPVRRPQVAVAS

ccCysS [2] = molecular target: T1, ccCysS; assay: X-ray crystal structure, […] Å; assay type: binding; conditions: active site, two conformers; with Met, 5′dA, Cbl and [Fe4S4]; anoxic, pH 6.0
ccCysS [3] = molecular target: T2, ccCysS (Corallococcus sp. CA054B, UniProt A0A3A8HCN5, W271A); assay: LC-MS product quantification; assay type: biochemical; conditions: 500 µM SAM, 2 mM Ti(III) citrate, pH 7.5, room temperature
T2 construct: gene D7V80_23740; codon-optimised gene in pSUMO, N-terminal SUMO tag cleaved with Ulp1; E. coli BL21(DE3) with pDB1282 and pBAD42-BtuCEDFB; monomer; TLS groups span residues 5 to 704
T2 sequence (A0A3A8HCN5 1-645 W271A): T1 sequence (A0A3A8HCN5 1-645)

cbCysS = molecular target: T3, cbCysS (Cystobacter sp. Cbv34, UniProt A0A0H4NV78); assay: LC-MS product quantification; assay type: biochemical; conditions: 500 µM SAM, 2 mM Ti(III) citrate, pH 7.5, room temperature
T3 construct: gene cysS; codon-optimised gene in pSUMO, N-terminal SUMO tag cleaved with Ulp1; E. coli BL21(DE3) with pDB1282 and pBAD42-BtuCEDFB; monomer
T3 sequence (A0A0H4NV78 1-642): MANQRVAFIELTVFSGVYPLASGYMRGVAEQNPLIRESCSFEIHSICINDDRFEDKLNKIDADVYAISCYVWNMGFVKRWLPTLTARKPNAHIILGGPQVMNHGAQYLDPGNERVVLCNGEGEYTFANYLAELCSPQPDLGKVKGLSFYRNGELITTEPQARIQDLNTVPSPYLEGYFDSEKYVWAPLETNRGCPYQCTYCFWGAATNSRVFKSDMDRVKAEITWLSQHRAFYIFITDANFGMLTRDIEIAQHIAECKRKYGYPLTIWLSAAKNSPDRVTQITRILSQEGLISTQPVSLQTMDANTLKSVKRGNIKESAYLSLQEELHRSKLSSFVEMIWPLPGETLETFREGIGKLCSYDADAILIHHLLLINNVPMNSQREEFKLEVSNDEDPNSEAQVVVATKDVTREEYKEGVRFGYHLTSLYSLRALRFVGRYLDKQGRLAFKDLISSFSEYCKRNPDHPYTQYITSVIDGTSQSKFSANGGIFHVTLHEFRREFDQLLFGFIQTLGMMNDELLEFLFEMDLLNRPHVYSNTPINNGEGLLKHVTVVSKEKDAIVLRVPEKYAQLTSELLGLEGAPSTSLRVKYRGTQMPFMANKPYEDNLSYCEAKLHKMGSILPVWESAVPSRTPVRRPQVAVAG

ccCysS [4] = molecular target: T1, ccCysS; assay: LC-MS product quantification; assay type: biochemical; conditions: 500 µM SAM, 2 mM Ti(III) citrate, pH 7.5, room temperature
ccCysS [5] = molecular target: T4, ccCysS (Corallococcus sp. CA054B, UniProt A0A3A8HCN5, F485L); assay: LC-MS product quantification; assay type: biochemical; conditions: 500 µM SAM, 2 mM Ti(III) citrate, pH 7.5, room temperature
T4 construct: gene D7V80_23740; codon-optimised gene in pSUMO, N-terminal SUMO tag cleaved with Ulp1; E. coli BL21(DE3) with pDB1282 and pBAD42-BtuCEDFB; monomer; TLS groups span residues 5 to 704
T4 sequence (A0A3A8HCN5 1-645 F485L): T1 sequence (A0A3A8HCN5 1-645)

ccCysS [6] = molecular target: T5, ccCysS (Corallococcus sp. CA054B, UniProt A0A3A8HCN5, F485W); assay: LC-MS product quantification; assay type: biochemical; conditions: 500 µM SAM, 2 mM Ti(III) citrate, pH 7.5, room temperature
T5 construct: gene D7V80_23740; codon-optimised gene in pSUMO, N-terminal SUMO tag cleaved with Ulp1; E. coli BL21(DE3) with pDB1282 and pBAD42-BtuCEDFB; monomer; TLS groups span residues 5 to 704
T5 sequence (A0A3A8HCN5 1-645 F485W): T1 sequence (A0A3A8HCN5 1-645)

ccCysS [7] = molecular target: T6, ccCysS (Corallococcus sp. CA054B, UniProt A0A3A8HCN5, F485Y); assay: LC-MS product quantification; assay type: biochemical; conditions: 500 µM SAM, 2 mM Ti(III) citrate, pH 7.5, room temperature
T6 construct: gene D7V80_23740; codon-optimised gene in pSUMO, N-terminal SUMO tag cleaved with Ulp1; E. coli BL21(DE3) with pDB1282 and pBAD42-BtuCEDFB; monomer; TLS groups span residues 5 to 704
T6 sequence (A0A3A8HCN5 1-645 F485Y): T1 sequence (A0A3A8HCN5 1-645)

Row | Structure (SMILES) | X-ray crystal structure, 2.00 Å (ccCysS [1]) | X-ray crystal structure, 1.75 Å (ccCysS [2]) | LC-MS product quantification (ccCysS [3]) | LC-MS product quantification (cbCysS) | LC-MS product quantification (ccCysS [4]) | LC-MS product quantification (ccCysS [5]) | LC-MS product quantification (ccCysS [6]) | LC-MS product quantification (ccCysS [7])
1 | CCOc1cc(C(=O)OCCNC(=O)CCNC(=O)[C@H](O)C(C)(C)CO)ccc1N [OEt, OEt substrate] | Structures with the OMe or OEt substrates have well-defined substrate electron densities |  |  |  |  |  |  | 
2 | COc1cc(C(=O)OCCNC(=O)CCNC(=O)[C@H](O)C(C)(C)CO)ccc1N [OMe, OMe substrate] |  | Structures with the OMe or OEt substrates have well-defined substrate electron densities | changed to Ala, the variant shows much lower activity across all three methylations | In reactions using the OMe substrate, only the OEt and O^iPr products are detected |  |  |  | 
3 | CC(C)Oc1cc(C(=O)OCCNC(=O)CCNC(=O)[C@H](O)C(C)(C)CO)ccc1N [OiPr, O^iPr substrate] |  |  |  | The O^sBu and O^tBu products are observed only when starting from the O^iPr substrate | The O^sBu and O^tBu products are observed only when starting from the O^iPr substrate | The F485L variant, less bulky than wild-type (WT) ccCysS, produces methylated products in roughly equal amounts | F485Y and F485W yield fewer overall methylated products | F485Y and F485W yield fewer overall methylated products
